Experimental findings from ChEMBL document CHEMBL1201862, “PubChem BioAssay data set” (2004) are described below.

Holding throughout (assay): NCI-60 cell line screen, 48 h
For assay [1], the system named is 786-0.
For assay [2], the system named is A498.
Assay [3] relates to ACHN.
Assay [4] relates to CAKI-1.
The test system of assay [5] is COLO 205.
Assay [6] deals with DU-145.
Assay [7] has as its system HL-60.
Assay [8] concerns K562.
In assay [9] the test system is KM12.
Assay [10] concerns MCF7.
In assay [11] the test system is MDA-MB-231.
The subject of assay [12] is NCI-H23.
Assay [13] has as its system OVCAR-8.
Assay [14] deals with PC-3.
Assay [15] concerns SF-295.
Assay [16] deals with SK-MEL-2.
Assay [17] deals with SK-MEL-5.
In assay [18] the test system is SN12C.
The subject of assay [19] is UO-31.
Assay [20] relates to RXF 393.

Each structure is given as a SMILES string.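 Five concentrations, 48 hours, 96-well plates. Abbreviation: GI50, concentration required for 50% inhibition of growth.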 Activity calls are given as the source filed them. No stated cut-off is given here; in the data, active = GI50 up to about 1.1 µM and inactive = higher.

For `NS(=O)(=O)c1nnc(/N=C(/CCC(=O)O)C(=O)O)s1`, the GI50 in assay [1], in assay [2], in assay [3], in assay [4], in assay [5] and in assay [6] was > 100 µM (inactive) throughout. Further, the GI50 is > 100 µM (inactive) in assay [7]; > 100 µM (inactive) in [8]; 20.5 µM (inactive) in assay [9]; > 100 µM (inactive) in assay [10]; > 100 µM (inactive) in assay [11]; > 100 µM (inactive) in [12]. The GI50 in [13], in assay [14], in assay [15], in assay [16], in assay [17] and in [18] was > 100 µM (inactive) throughout. Further, in [19], the GI50 is > 100 µM (inactive).

For `COCC([C@@H](O)C(O)C(=O)NCC[C@@H](C)c1nc(/C=C/CC2OC3(C[C@H](O)C2C)OC(C(C[C@H](O)C(C)[C@H](O)C(C)/C=C(C)/C(C)=C/C=C/C(C)=C/C#N)OC)[C@@H](OP(=O)(O)O)C3(C)C)co1)N(C)C` (stereo partly specified), the GI50 in assay [1] is 0.000176 µM (active); in [2], 0.00188 µM (active); in [3] it was 0.000199 µM (active); in [4], 0.000174 µM (active); in assay [5] it was 0.000171 µM (active); in assay [6] it was 0.000182 µM (active). Besides, the GI50 in assay [7] was 0.00048 µM (active); in assay [8] it was 0.000296 µM (active); in assay [9], 0.000184 µM (active); in assay [10], 0.000184 µM (active); in assay [11], 0.000242 µM (active); in [12] it was 0.000762 µM (active). The GI50 in [13] is 0.000208 µM (active); in [14], 0.000179 µM (active); in assay [15], 0.000184 µM (active); in assay [16] it was 0.000188 µM (active); in assay [17] it was 0.000159 µM (active); in assay [18], 0.000179 µM (active). In [19], the GI50 is 0.00118 µM (active).

For `O=C(O)c1cc(O)c2c(c1)Cc1cccc(O)c1C2=O`, the GI50 in [1] was 30.5 µM (inactive); in assay [2] it was 26.9 µM (inactive); in [3], 15.4 µM (inactive); in [5] it was 24.2 µM (inactive); in assay [6], 36.5 µM (inactive); in assay [7] it was 21.1 µM (inactive). Further, the GI50 is 40 µM (inactive) in assay [8]; 30.1 µM (inactive) in assay [10]; 21.5 µM (inactive) in assay [11]; 28.1 µM (inactive) in assay [12]; 21.3 µM (inactive) in [13]; 29.2 µM (inactive) in assay [14]. The GI50 in assay [15] is 20.3 µM (inactive); in assay [17], 21.1 µM (inactive); in assay [18], 16.6 µM (inactive); in assay [19], 17.4 µM (inactive).

With `Cc1cc(Nc2ccc(S(=O)(=O)O)cc2)c2ccccc2n1`, the GI50 in assay [1], in assay [2], in assay [3], in assay [4], in assay [5] and in assay [6] was > 100 µM (inactive) each time. Moreover, the GI50 in assay [7], in [8], in assay [9], in assay [10], in assay [11] and in [12] was > 100 µM (inactive) throughout. Also, the GI50 in assay [13], in assay [14], in assay [15], in [16], in [17] and in assay [18] was > 100 µM (inactive) in each case. Moreover, the GI50 in assay [19] is > 100 µM (inactive).

For the molecule `C[C@]12Cc3cnc(-c4ccccc4)nc3C[C@@H]1CC[C@@H]1[C@@H]2CC[C@@]2(C)[C@H]1CC[C@]2(C)O`, the GI50 in [1] was 10.2 µM (inactive); in assay [2], 16.3 µM (inactive); in assay [3] it was 14.2 µM (inactive); in assay [4], 4.98 µM (inactive); in assay [5], 11.7 µM (inactive); in assay [6], 17.9 µM (inactive). Moreover, the GI50 in [7] was 17.9 µM (inactive); in assay [8], 2.96 µM (inactive); in assay [9], 13.9 µM (inactive); in assay [10] it was 19.3 µM (inactive); in assay [11], 18.8 µM (inactive); in assay [12] it was 17.6 µM (inactive). Moreover, the GI50 in assay [13] is 14.4 µM (inactive); in [14], 13.9 µM (inactive); in assay [15], 14.8 µM (inactive); in assay [16], 21 µM (inactive); in assay [17] it was 17.7 µM (inactive); in assay [18] it was 17.9 µM (inactive). The GI50 in [19] is 3.03 µM (inactive).

`Clc1cc2c(cc1Cl)CC(NCCN1CCCC1)CC2` (stereo unspecified): the GI50 in [1] was 13.2 µM (inactive); in assay [2], 13.7 µM (inactive); in [3] it was 17.9 µM (inactive); in [4], 15.7 µM (inactive); in assay [5], 3.07 µM (inactive); in [6], 14.7 µM (inactive). Moreover, the GI50 was 14.6 µM (inactive) in [7]; 10.8 µM (inactive) in assay [8]; 15.2 µM (inactive) in [9]; 15.6 µM (inactive) in assay [10]; 15.1 µM (inactive) in assay [11]; 16 µM (inactive) in [12]. The GI50 in assay [13] was 16.7 µM (inactive); in assay [14] it was 15.1 µM (inactive); in assay [15] it was 16.1 µM (inactive); in [16], 17.8 µM (inactive); in [17], 3.74 µM (inactive); in [18] it was 15.8 µM (inactive). Further, the GI50 in assay [19] is 11.1 µM (inactive).

`O=C(c1ccccc1)c1ccc2[nH]c(-c3c(Cl)c(Cl)c(Cl)c(Cl)c3C(=O)N/N=C/c3cccc(Oc4ccccc4)c3)nc2c1`: the GI50 in [1] was > 100 µM (inactive); in assay [3], > 100 µM (inactive); in assay [4], > 100 µM (inactive); in assay [5] it was > 100 µM (inactive); in assay [6], > 100 µM (inactive); in assay [7], 17.6 µM (inactive). Moreover, the GI50 in assay [8] was 46.5 µM (inactive); in [9], > 100 µM (inactive); in assay [10] it was 42 µM (inactive); in assay [11] it was > 100 µM (inactive); in assay [12] it was 74.1 µM (inactive); in assay [13], 75.2 µM (inactive). The GI50 in assay [14] was 77.4 µM (inactive); in [20] it was 68.2 µM (inactive); in [15] it was 54.7 µM (inactive); in [16], 46.2 µM (inactive); in [17] it was 90.6 µM (inactive); in assay [18] it was > 100 µM (inactive). Also, the GI50 in assay [19] is > 100 µM (inactive).

Regarding `COc1ccc2oc(=N)c(C(N)=S)cc2c1`, the GI50 was 23.9 µM (inactive) in [1]; 21.4 µM (inactive) in [3]; 37.8 µM (inactive) in assay [4]; 29.8 µM (inactive) in [5]; 27.2 µM (inactive) in assay [6]; 14.3 µM (inactive) in assay [7]. For the same molecule, the GI50 in assay [8] is 28.4 µM (inactive); in assay [9] it was 22.2 µM (inactive); in assay [10] it was 27.7 µM (inactive); in assay [11], 18 µM (inactive); in assay [13], 18.2 µM (inactive); in [14], 27.5 µM (inactive). In addition, the GI50 in assay [20] was 17 µM (inactive); in assay [15], 37.1 µM (inactive); in assay [16], 18.4 µM (inactive); in [17] it was 13.6 µM (inactive); in [18], 27.2 µM (inactive); in assay [19] it was 19.6 µM (inactive).

On to `COC(=O)[C@H](Cc1c[nH]c2ccccc12)NP(=O)(OCCC#N)OCC1OC(n2cc(C)c(=O)[nH]c2=O)CC1N=[N+]=[N-]` (stereo partly specified), for which the GI50 in assay [1] is > 100 µM (inactive); in assay [3], 50.8 µM (inactive); in assay [4], > 100 µM (inactive); in assay [5], > 100 µM (inactive); in assay [6], > 100 µM (inactive); in assay [7], > 100 µM (inactive). The GI50 in [8], in assay [9], in assay [10], in assay [11], in [12] and in [13] was > 100 µM (inactive) throughout. The GI50 in [14], in assay [20], in assay [15], in assay [16], in assay [17] and in assay [18] was > 100 µM (inactive) throughout. The GI50 in assay [19] was > 100 µM (inactive).

As to `COc1ccc(OC)c(Cc2cnc3nc(N)nc(N)c3c2C)c1` [PIRITREXIM ISETHIONATE], the GI50 in [1] was < 0.0497 µM (active); in [3] it was < 0.01 µM (active); in assay [4], 0.0456 µM (active); in [5], 12.9 µM (inactive); in assay [6], 0.284 µM (active); in [7] it was < 0.01 µM (active). Also, the GI50 is < 0.01 µM (active) in assay [8]; 0.243 µM (active) in assay [9]; 0.634 µM (active) in assay [10]; 15.3 µM (inactive) in assay [11]; 0.0617 µM (active) in [12]; < 0.0234 µM (active) in assay [13]. Moreover, the GI50 in [14] was 0.0353 µM (active); in assay [20] it was 2.06 µM (inactive); in assay [15], 0.0592 µM (active); in assay [16], 0.986 µM (active); in assay [17], 0.0955 µM (active); in [18], 0.352 µM (active). Besides, the GI50 in [19] is 0.24 µM (active).
